pIC50: −log10 of the molar value. Read-outs that look alike come from different tables or passages of the source.
What was measured:
[1] = In vivo pharmacokinetic analysis, plasma; design: species or system Balb/C female mice; details: mice, result in words
Method: In Vivo Pharmacokinetic Analysis
Age 8 to 9 weeks Balb/C female mice were used for this study. The mice were maintained in a special pathogen-free environment and in disposable cages. Animal room was set to maintain temperature and relative humidity at 23° C.±3° C. and 55%±15%, respectively. Housing room was on a 12:12 light/dark cycle. Water was supplied ad libitum to each cage via water bottles. All mice were fed rodent diet with 18% protein. All animals were weighed before commencement of the study.
Compound 1 was stored at 4° C. protected from light. Dosing solutions were used within 2 hours of preparation. Compound 1 was formulated within 2 hours prior to dosing by adding the pre-calculated volume of PEG 400 (40% of total solution volume). Formulated compound 1 was vortexed and sonicated until a clear solution was formed. […]
The concentration of Compound 1 was determined by a UPLC-TIS-MS-MS method (ultra performance liquid chromatography-turbo ion spray-tandem mass spectrometry). […]
Mass spectrometric analysis was performed using an AB Sciex API5000 with Turbo Ion Spray interface operating in a positive ionization mode. Quantification was performed using multiple reaction monitoring (MRM) method with the transitions of (m/z) 316.104→(m/z) 219.014 for Compound 1 and (m/z) 455.346→(m/z) 165 for verapamil (internal standard). […]

[2] = In vitro microsome stability analyses; format: in vitro ADME; details: result in words
[3] = system: HCT116 (colorectal cancer) cells; assay: Resazurin-based cell viability assay using colorectal cancer cells; details: Homo sapiens, HCT-116, 72 hr incubation
Summary of the method: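 HCT116 cells in DMEM/10% FBS grown 24 h, then exposed to serially diluted compounds for 72 h at 37 °C. Viability read as resazurin (1 mM) fluorescence (ex 535/em 590 nm) after 4–6 h; background-subtracted, normalised to DMSO control, IC50 fitted from percent survival.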

[4] = system: MOLP-8; assay: In vitro cell viability assay (CellTiter-Glo, ATP levels), multiple myeloma cells; format: cell-based; details: Homo sapiens, MOLP-8, 168 h, 7-day incubation, CellTiter-Glo, average values; read-out: MOLP-8 IC50
Summary of the method: (§1)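 Cells plated overnight, then exposed to compounds over a concentration range for 7 days at 37 °C, 5% CO2. Viability read as ATP luminescence (CellTiter-Glo), normalised to positive and negative control wells; IC50 from Hill-equation non-linear regression of concentration–response curves.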

[5] = system: DU4475; assay: In vitro cell viability assay (CellTiter-Glo, ATP levels), triple negative breast cancer cells; format: cell-based; details: Homo sapiens, DU-4475, 168 h, read-out: DU4475 IC50
Summary of the method: as §1

[6] = 7-day incubation, CellTiter-Glo, average values

SMILES	pIC50 [3]	pIC50 [4]	pIC50 [5, 6]	in vivo plasma half-life (t1/2) as compared to piperlongumine [1]	potency and/or metabolic stability [2]	pIC50 [5]
COc1cc(/C=C/C(=O)N2CCC=CC2=O)cc2c1OCCO2 [Compound 1, (E)-1-(3-(8-methoxy-2,3-dihydrobenzo[b][1,4]dioxin-6-yl)acryloyl)-5,6-dihydropyridin-2(1H)-one]	5.72	6.13	6.08	increased in vivo plasma half-life (t1/2) as compared to piperlongumine	demostrated potency and/or metabolic stability	
Cn1cc(/C=C/C(=O)N2CC(C)(C)C=CC2=O)cn1 [Compound 85, (E)-5,5-dimethyl-1-(3-(1-methyl-1H-pyrazol-4-yl)acryloyl)-5,6-dihydropyridin-2(1H)-one]	4.51	5.34	5.17			
O=C1C=CCCN1C(=O)/C=C/c1cnn(C2CC2)c1 [Compound 86, (E)-1-(3-(1-cyclopropyl-1H-pyrazol-4-yl)acryloyl)-5,6-dihydropyridin-2(1H)-one]	5.42	6.07	5.78			
C/C(=C/C1CCNCC1)C(=O)N1CCC=CC1=O [Compound 87, (Z)-1-(2-methyl-3-(piperidin-4-yl)acryloyl)-5,6-dihydropyridin-2(1H)-one 2,2,2-trifluoroacetate]	5.00	5.44	5.26			
CC(C)(C)OC(=O)N1CCC(/C=C(/C(=O)N2CCC=CC2=O)c2ccccc2)CC1 [Compound 91, (E)-tert-butyl 4-(3-oxo-3-(2-oxo-5,6-dihydropyridin-1(2H)-yl)-2-phenylprop-1-enyl)piperidine-1-carboxylate]	5.04	5.49				5.38

Second part, led by results:

pIC50 [3]	pIC50 [4]	pIC50 [5, 6]	SMILES	in vivo plasma half-life (t1/2) as compared to piperlongumine [1]	potency and/or metabolic stability [2]	pIC50 [5]
5.15	5.42	5.18	C/C(=C\C1CCNCC1)C(=O)N1CCC=CC1=O [Compound 88, (E)-1-(2-methyl-3-(piperidin-4-yl)acryloyl)-5,6-dihydropyridin-2(1H)-one 2,2,2-trifluoroacetate]			
5.57	5.45	5.08	O=C1C=CCCN1C(=O)/C=C/c1cn[nH]c1 [Compound 89, (E)-1-(3-(1H-pyrazol-4-yl)acryloyl)-5,6-dihydropyridin-2(1H)-one]			
5.15	6.36	5.83	O=C1C=CCCN1C(=O)/C=C/c1cnn(CC(F)(F)F)c1 [Compound 90, 1 11-{(2E)-3-[1-(2,2,2-trifluoroethyl)-1H-pyrazol-4-yl]prop-2-enoyl}-5,6-dihydropyridin-2(1H)-one]			
5.01	5.36	5.32	CC(C)(C)OC(=O)N1CCC(/C=C(\C(=O)N2CCC=CC2=O)c2ccccc2)CC1 [Compound 92, (Z)-tert-butyl 4-(3-oxo-3-(2-oxo-5,6-dihydropyridin-1(2H)-yl)-2-phenylprop-1-enyl)piperidine-1-carboxylate]			
